Experiments:
Wistar rats = assay: Rat Penile Erection Model; assay type: in vivo; details: for Induced Penile Erection in Rats, Incidence (%): subcutaneous, animals with 1 or more erections in 60 minutes; for induced penile erections in rats (significance): subcutaneous administration, doses of 0.01 μmol/kg to 0.10 μmol/kg
Method: Wistar rats were used as a primary animal model to study penile erection in vivo. All experiments were carried out between 9:00 AM and 3:00 PM in a diffusely illuminated testing room with a red light. Animals were weighed and allowed to adapt to the testing room for 60 minutes before the beginning of experiments. Rats were placed individually in a transparent cage (20×30×30 cm) after drug injection.
(L)-Ascorbic acid in saline (1 mg/mL) was used as vehicle. Twelve animals were used per dose.

Male Fitch ferrets = test system: Male Fitch ferrets; parameters: species or system ferret; details: in vivo, sc
Method: Male Fitch ferrets (body weights 1.0-1.5 kg) were obtained from Marshall Farms. Ferrets were fasted overnight before experimentation. Apomorphine or a compound of the present invention was administrated subcutaneously; animals were placed individually in observation cages and the drug-induced emesis and signs of nausea were determined (by direct observation) for a period of 90 minutes following drug injection. Nausea was characterized by behaviors such as licking, gagging, backing, head burying, and intense abdominal grooming. Emesis was usually preceded by these behaviors and was characterized by rhythmic abdominal contractions which were associated with vomiting or retching movement.
Sterile saline was used as vehicle. Six animals were used per dose.

Row | Compound | melting point [°C] | further results
1 | C[C@@H]1CN(c2ccccn2)CCN1Cc1nc2ccccc2[nH]1 [Example 26, 2-{[(2R)-2-methyl-4-pyridin-2-ylpiperazin-1-yl]methyl}-1H-benzimidazole] | 151 to 153 | 
2 | O=C(N1CCCC1)n1c(CN2CCN(c3ccccn3)CC2)nc2ccccc21 [Example 9, 2-[(4-pyridin-2-ylpiperazin-1-yl)methyl]-1-(pyrrolidin-1-ylcarbonyl)-1H-benzimidazole] | 120 to 121 | 
3 | c1ccc2[nH]c(CN3CCN(c4nccs4)CC3)nc2c1 [Example 7, 2-{[4-(1,3-thiazol-2-yl)piperazin-1-yl]methyl}-1H-benzimidazole] | 203 to 205 | 
4 | c1ccc(N2CCN(Cc3nc4ccccc4[nH]3)CC2)nc1 [2-[(4-pyridin-2-ylpiperazin-1-yl)methyl]-1H-benzimidazole] |  | Induced Penile Erection in Rats, Incidence (%) (Wistar rats; dose 0.003 μmol/kg, Table 1): 25%; Induced Penile Erection in Rats, Incidence (%) (Wistar rats; dose 0.01 μmol/kg, Table 1): 50%; Induced Penile Erection in Rats, Incidence (%) (Wistar rats; dose 0.03 μmol/kg, Table 1): 83%; Induced Penile Erection in Rats, Incidence (%) (Wistar rats; dose 0.10 μmol/kg, Table 1): 58%; induced penile erections in rats (significance) (Wistar rats): statistically significant; emesis in ferrets (in words) (Male Fitch ferrets): did not induce emesis
5 | Fc1cccnc1N1CCN(Cc2nc3ccccc3[nH]2)CC1 [Example 28, 2-{[4-(3-fluoropyridin-2-yl)piperazin-1-yl]methyl}-1H-benzimidazole] | 210 to 212 | 
6 | Oc1ccc(N2CCN(Cc3nc4ccccc4[nH]3)CC2)nc1 [6-[4-(1H-benzimidazol-2-ylmethyl)piperazin-1-yl]pyridin-3-ol] | 144 to 145 | Induced Penile Erection in Rats, Incidence (%) (Wistar rats; dose 0.01 μmol/kg, Table 2): 42%; Induced Penile Erection in Rats, Incidence (%) (Wistar rats; dose 0.03 μmol/kg, Table 2): 58%; Induced Penile Erection in Rats, Incidence (%) (Wistar rats; dose 0.1 μmol/kg, Table 2): 58%; Induced Penile Erection in Rats, Incidence (%) (Wistar rats; dose 0.3 μmol/kg, Table 2): 33%; induced penile erections in rats (significance) (Wistar rats): statistically significant
7 | Fc1ccccc1N1CCN(Cc2nc3ccccc3[nH]2)CC1 [Example 14, 2-{[4-(2-fluorophenyl)piperazin-1-yl]methyl}-1H-benzimidazole] | 262 to 264 | 
8 | CN1CCc2cccc3c2[C@H]1Cc1ccc(O)c(O)c1-3 [Apomorphine, (6aR) 5,6,6a,7-tetrahydro-6-methyl-4H-dibenzo[de,g]quinoline-10,11-diol, reference compound] |  | incidence of rat penile erections (Wistar rats; positive control of Table 1, dose 0.1 μmol/kg): 83%; incidence of rat penile erections (Wistar rats; positive control of Table 2, dose 0.1 μmol/kg): 93%
9 | Clc1ccccc1N1CCN(Cc2nc3ccccc3[nH]2)CC1 [Example 13, 2-{[4-(2-chlorophenyl)piperazin-1-yl]methyl}-1H-benzimidazole] | 245 to 246 | 
10 | Oc1ccccc1N1CCN(Cc2nc3ccccc3[nH]2)CC1 [Example 20, 2-[4-(1H-benzimidazol-2-ylmethyl)piperazin-1-yl]phenol] | 208 to 216 | 
11 | CC1CN(c2ccccn2)CCN1Cc1nc2ccccc2[nH]1 (stereo not drawn) [Example 24, 2-[(2-methyl-4-pyridin-2-ylpiperazin-1-yl)methyl]-1H-benzimidazole] | 207 to 209 | 
12 | CN(C)C(=O)n1c(CN2CCN(c3ccccn3)CC2)nc2ccccc21 [Example 10, N,N-dimethyl-2-[(4-pyridin-2-ylpiperazin-1-yl)methyl]-1H-benzimidazole-1-carboxamide] | 174 to 176 | 
13 | c1cnc(N2CCN(Cc3nc4ccccc4[nH]3)CC2)nc1 [Example 2, 2-[(4-pyrimidin-2-ylpiperazin-1-yl)methyl]-1H-benzimidazole] | 198 to 200 | 
14 | CCOc1ccccc1N1CCN(Cc2nc3ccccc3[nH]2)CC1 [Example 19, 2-{[4-(2-ethoxyphenyl)piperazin-1-yl]methyl}-1H-benzimidazole] | 95 to 100 | 
15 | Oc1ccc(N2CCN(Cc3nc4ccccc4[nH]3)CC2)cc1 [Example 17, 4-[4-(1H-benzimidazol-2-ylmethyl)piperazin-1-yl]phenol] | 206 to 209 | 
16 | C[C@H]1CN(c2ccccn2)CCN1Cc1nc2ccccc2[nH]1 [Example 25, 2-{[(2S)-2-methyl-4-pyridin-2-ylpiperazin-1-yl]methyl}-1H-benzimidazole] | 149 to 151 | 
17 | N#Cc1ccccc1N1CCN(Cc2nc3ccccc3[nH]2)CC1 [Example 12, 2-[4-(1H-benzimidazol-2-ylmethyl)piperazin-1-yl]benzonitrile] | 236 to 237 | 
18 | N#Cc1cccnc1N1CCN(Cc2nc3ccccc3[nH]2)CC1 [Example 4, 2-[4-(1H-benzimidazol-2-ylmethyl)piperazin-1-yl]nicotinonitrile] | 208 to 210 | 
19 | CSc1ccccc1N1CCN(Cc2nc3ccccc3[nH]2)CC1 [Example 18, 2-({4-[2-(methylthio)phenyl]piperazin-1-yl}methyl)-1H-benzimidazole] | 214 to 216 | 
